Test results: patent US8518882B2, “Methods and compositions for ameliorating or inhibiting decline in memory or intelligence or improving same” (priority 1998, dated 2013)

Legend:
gerbils [1] = experiment: Radial arm maze food pellet learning assay in gerbils; format: in vivo; details: gerbils, 0.1, 0.5 or 2.5% UMP chow for three weeks
Protocol: Male young adult gerbils fed control or UMP-containing chow (0, 0.1, 0.5 or 2.5%) ad lib for three weeks were tested in a radial arm maze, consisting of a central chamber with four branches primed with a small food pellet at the end of each. Before testing, animals were fasted overnight; each animal was then placed in the central chamber and allowed up to 180 seconds to find all of the pellets. A shorter time required to find the pellets is indicative of improved learning and spatial memory.

Aging rats = experiment: Morris water maze in aging rats on UMP diet; format: in vivo; details: 2.5% diet for six weeks
Excerpt: Aging rats (18 months, 500 g) were fed a control diet or a diet containing 2.5% UMP diets for six weeks. They were then shown a hidden platform in a six-foot diameter pool of water, placed somewhere in each of the four quadrants of the pool in turn, and were allowed 90 seconds in each trial to attempt to relocate the platform by swimming, and the swimming time “mean escape latency” recorded. The set of four trials was repeated on each of four consecutive days. The platform was in the same place each day. This test, known as the Morris water maze, is an indicator of spatial memory.

[2] = system: dopamine (DA) release in striatal dialysate; experiment: In vivo microdialysis of striatal dopamine and metabolites in aged rats on UMP diet; design: species or system Fischer 344 rats; details: control vs. UMP-1 week vs. UMP-6 weeks, 2.5% UMP diet
[3] = Body weight of aged rats on UMP diet; details: 2.5% UMP·2Na+ diet, 0-6 weeks
Excerpt: Male middle aged Fischer 344 rats, 22-24 months old at the time of doing microdialysis, were obtained from National Institute on Aging (Harlan Sprague-Dawley, Indianapolis, Ind.). Rats were housed individually under standard husbandry conditions and exposed to 12 hr light/dark cycle with food and water provided ad libitum.
Rats were acclimated to the animal facility for more than 7 days before fed a control laboratory diet (Teklad Global 16% protein rodent diet, TD.00217, Harlan Telclad, Madison, Wis.), or this diet fortified with UMP·2Na^+ (2.5%, TD.03398, UMP·2Na^+; Numico Research, the Netherlands) for 6 weeks.
Rats were not fed with the research diet until at least 7 days later after their arrival. They were weighed at the time of beginning feeding (t=0), as well as 1, 2, 4, 6 weeks later. At time 0, rats were randomly assigned into two groups.

[4] = system: acetylcholine release from neurons in the corpus striatum; experiment: Basal acetylcholine release in corpus striatum of rats on dietary UMP; format: in vivo
EC and IC rats [5] = experiment: Hidden platform water maze task and probe test in EC and IC rats; format: in vivo, Sprague Dawley rats; details: 0.1% UMP diet
Protocol: Behavioral training was carried out between 10:00 AM-2:00 PM, in a blinded manner. […] A different starting point was used on each trial such that each starting point was used once each day. […] After mounting the platform, rats remained on the platform for 20 seconds. Following each trial, animals were removed from the maze and placed in a holding cage for a 30 second inter-trial interval (ITI). The latency to mount the escape platform was used as a measure of task acquisition.
For this, the platform was removed and the swim path and time spent searching in the quadrant of the pool that previously contained the platform were measured over 60 s. This provides a measurement for the retention of spatial memory and indicates whether a spatial strategy was used during hidden platform training.

gerbils [6] = experiment: Working memory and reference memory assay in gerbils; format: in vivo; details: 0.1% UMP diet for four weeks
Excerpt: Groups of ten gerbils fed control or 0.1% UMP diet for four weeks and trained to successfully find all of the food pellets as described above were then given a modified test in which only two arms of the maze (but always the same two) contained food pellet rewards. In this test, a working memory error is one in which a gerbil revisits an arm from which it has already taken the pellet that day.

neurofilament-M (NF-M) = experiment: Western blot of NF-M in striatum of aged rats on UMP diet; format: in vivo
Protocol: Data were represented according to UMP treatment of six to sixteen measurements each group (means±S.E.M.). One-way ANOVA with Turkey's HSD post hoc tests were used to compare the difference among the treatments the Newman-Keuls multiple range test was used for the data in FIG. 13.
Striatal tissues were placed in Eppendorf tubes containing 200 μl lysis buffer (60 mM Tris-HCl, 4% SDS, 20% glycerol, 1 mM dithiothreitol, 1 mM AEBSF, 8 μM aprotinin, 500 μM bestatin, 15 μM E64, 200 μM leupeptin, 10 μM pepstatin A). The samples were sonicated, boiled (10 min), and centrifuged (14,000 g for 1 min at room temperature) The supernatant fluid was transferred to a clean tube, and total protein content was determined using the Bicinchoninic Acid assay (Sigma, St. Louis, Mo.).
Equal amounts of protein (40 μg protein/lane) were loaded for sodium dodecyl sulfate-polyacrylamide gel electrophoresis (4-15% SDS PAGE; Bio-Rad, Hercules, Calif.). Prior to gel electrophoresis, bromphenol blue solution (0.07%) was added to each sample. Proteins were separated, transferred onto polyvinylidene difluoride (PVDF) membranes (Immobilon-P, Millipore), and blocked with 5% bovine serum albumin (Tris-buffered saline/0.15% Tween 20) for 1 h. After 3 10 min rinses in Tris-buffered saline (TBST), blots were incubated in TBST with various antibodies against the proteins of interest, including NF-70, NF-M (1: 2000, 1: 5000, respectively; Calbiochem, La Jolla, Calif.) at 4° C. overnight on an orbital shaker. […] Films were digitized using a Supervista S-12 scanner with a transparency adapter (UMAX Technologies, Freemont, Calif.). Analysis was performed using the public domain NIH Image program (NIH V.1.61).

EC and IC rats [7] = experiment: Visible platform water maze task in EC and IC rats; format: in vivo, Sprague Dawley rats; details: UMP-supplemented diet
Excerpt: On each trial the animal was placed into the tank facing the wall at one of four designated start points (N, S, E, and W) and allowed to escape onto the visibly cued platform. A different starting point was used on each trial such that each starting point was used each day. In addition, the visible escape platform was placed in a different quadrant on each trial such that each of the four quadrants contained the escape platform once each day. […] After mounting the platform, rats remained on the platform for 20 sec. Following each trial, animals were removed from the maze and placed in a holding cage for a 30-sec ITI.

[8] = Plasma uridine levels after oral UMP in humans; format: in vivo; details: 500, 1000 or 2000 mg UMP orally; baseline and 1, 2, 4, 8 hr
Protocol: 1-milliliter (mL) samples of heparinized plasma were spiked with 1 μg fluoro-uridine for use as an internal standard, then deproteinized by adding methanol (5 mL).
All steps were performed at 4° C. Boronate affinity columns (Affigel-601, Bio-Rad) were primed with two 5-mL ammonium acetate washes, samples were applied, and columns were washed again with ammonium acetate, after which the nucleosides were eluted with 0.1 N formic acid (7 mL). Eluates were lyophilized, then reconstituted in 100 μL water for HPLC analysis.
HPLC analysis was performed using a Beckman System Gold apparatus (Beckman Instruments) equipped with a Rainin Dynamax Microsorb C18 column (3 μm packing; 4.6×100 mm) at room temperature. The standard HPLC method is described in Lopez-Coviella et al, (J. Neurochem 65: 889-894, 1995). For modified HPLC, an isocratic elution buffer was used containing 0.004 N potassium phosphate buffer (pH 5.8) and 0.1% methanol instead of formic acid, flowing at 1 mL/min and heated to 35°.
Eight healthy subjects (5 male, 3 female, 27-67 years old) were instructed to fast overnight and given sequentially increasing doses (500, 1000, and 2000 mg) of disodium UMP (Numico, Wageningen, NL) at 7-8 AM on each of three days, separated by at least a three-day washout period. All subjects were given lunch. Blood samples were drawn over an eight-hour period into heparinized tubes. […]

With `O=c1ccn([C@@H]2O[C@H](COP(=O)([O-])[O-])[C@@H](O)[C@H]2O)c(=O)[nH]1.[Na+].[Na+]` [UMP, uridine-5′-monophosphate disodium] the “Time required to find the pellets” value (gerbils [1]) was “reduced the time required for gerbils to find the pellet in a dose-dependent manner”, the “Time required to reach the platform (mean escape latency)” value (Aging rats) was “statistically significant reduction in the time required to reach the location of the platform” and the “Basal DA levels in dialysate” value [2] was “did not affect”. For the same compound, the “Basal DOPAC levels in dialysate” value [2] was “no effects”, the “Basal HVA levels in dialysate” value [2] was “no effects” and the Body weight [3] was “neither UMP-diet (vs. control) nor UMP time interaction affected body weight”. The “Basal release of acetylcholine in corpus striatum” value [4] was “increase the basal release”, the “Rate of acquisition of hidden platform task” value (EC and IC rats [5]; EC rats, vs EC-CONT, P<0.09) was “acquired the task at a faster rate” and the “Rate of acquisition of hidden platform task” value (EC and IC rats [5]; IC rats, vs IC-CONT, P<0.05) was “acquired the task at a significantly faster rate”. The “Time in correct quadrant, 60 s probe test” value (EC and IC rats [5]; IC rats, vs IC-CONT, p<0.01) was “spent significantly more time in the correct quadrant”, the Reference memory errors (gerbils [6]) was “reduced numbers” and the Working memory errors (gerbils [6]) was “reduced numbers”. For the same compound, the “NF-M level compared to control group” value (neurofilament-M (NF-M); UMP diet 1 week) was “did not increase”, the “NF-M level, of control values” (neurofilament-M (NF-M); UMP diet 6 weeks, striatum, p<0.01) was 221±34% and the “NF-M level in striatum, of control values (second statement)” value (neurofilament-M (NF-M); feeding time not given) was 221±34%. For the same compound, the “Striatal-based (stimulus-response) memory, visible platform task” value (EC and IC rats [7]) was “little or no effect” and the Plasma uridine levels [8] was “increased in response to oral UMP in a dose-dependent fashion”.
